Results reported in paper PMC6394990, “Detailed characterization of the solution kinetics and thermodynamics of biotin, biocytin and HABA binding to avidin and streptavidin” (PLoS ONE, 2019).
Entries after “also recorded” stand apart in the source; their conditions may differ. Where two headings read alike, the source gives them in different places.

Key:
streptavidin (SAV) [1] = biological target: T1, streptavidin (SAV) (Streptomyces avidinii, UniProt P22629); assay: Stopped-flow association kinetics of dye-labeled biotin probes binding to streptavidin (F(t), rF(t); Arrhenius plots/global fitting); parameters: kcal/mol (from Arrhenius slope) / Eon for BFl: unit not given here; conditions: for half-time of association, rF¯(t): probe 20 nM
T1 construct: purchased Sigma Aldrich (St. Louis, MO)
T1 sequence (P22629 25-183): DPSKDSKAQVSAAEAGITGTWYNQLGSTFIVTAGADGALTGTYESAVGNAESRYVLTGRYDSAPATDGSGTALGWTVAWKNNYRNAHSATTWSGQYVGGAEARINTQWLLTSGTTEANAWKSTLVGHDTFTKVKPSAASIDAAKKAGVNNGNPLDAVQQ
Description: These reactions were carried out in a buffered solution of 10 mM Tris-HCl, 100 mM KCl, 2.5 mM MgCl2 and 1 mM CaCl2 at pH 8 and only AV-BcO reactions included pH 9 and 10. […] The deglycosylation of AV (for comparative association reactions) was carried out using the provided standard protocol with endoglycosidase H [47], both with and without incubation of a denaturant solution (2% SDS and 1M 2-mercaptoethanol).
The reactions were collected with the SF instrument, described previously. […] The AC(t) and DC(t) data were baseline corrected before obtaining the signal ratio (Eq 4) as a function of time (ρt).
The constant AGain is the instrumental amplitude gain and was evaluated by solving ρ(t) using the known steady state anisotropy (rss) of the complexes which is equivalent to the r(t) at t = ∞; and H, obtained from the equivalent grating factor (G) for the filters and photo multiplier tubes in the SF. For the probes used in here G was 0.82 and H = (1-G)/(1+G) = 0.099. Knowing Again and H, the AC(t) and DC(t) signals can be solved for r(t) and F(t) (Eqs 4 and 5) and the normalized fluorescence, F¯(t) , and corrected fluorescence anisotropy, rF¯(t), were obtained when F¯(0) and rF¯(0) were scaled to 1 at t = 0.
The F¯(t) (Eq 6) is equivalent to (I||) + 2 (I⊥) and proportional to quantum yield (QYi), molar absorptivity (εi) and to the formation or disappearance of the emitting species Xi(t); and rF¯(t) including the steady state anisotropies (rss) of each fluorescent species (Eq 7).
The possible reaction models were discriminated by the squared residuals of the observed and calculated association traces of both fluorescence and anisotropy fluorescence signals, F¯(t) and rF¯(t) , respectively.

streptavidin (SAV) [2] = biological target: T1, streptavidin (SAV); assay: Steady-state anisotropy (rss), SAV complex; type: physicochemical
Description: The lifetimes (τ), steady state anisotropies (rss), time-resolved anisotropies (rt) and quantum yields (QY) of the complexes (at 20 ± 0.1°C and pH 8) were collected with a dye-labeled B7 probe concentration of 20–40 nM and 1040–2080 nM of either protein (AV or SAV) to ensure that only one binding site in the tetramer was filled with a ligand (AB1 filling model).
The rss measurements were collected using the Giblin-Parkhurst modification of the Wampler-Desa method as described previously. The fluorescence signal was detected in a model A-1010 Alphascan fluorimeter (Photon Technologies, Inc., Birmingham, NJ) equipped with an R928 PMT (Hamamatsu, Bridgewater, NJ). The excitation was provided by an Ar^+ ion laser (Coherent Innova 70–4 Argon, Santa Clara, CA) at 488 nm and 5–10 mW of power incident on the sample. A photoelastic modulator (PEM-80; HINDS International, Inc., Portland, OR) was placed between the laser source and the sample compartment with a retardation level of 1.22π, and the PEM stress axis orientated 45° with respect to the E vector of the laser beam. Two signals were acquired with the PEM alternating between “on” and “off” positions for 10 seconds and the data fitted to a least squared straight line to minimize noise. A minimum of six of these independent measurements were averaged to acquire the rss values. The fluorimeter G factor was determined using a film polarizer and analyzer with an excitation at 488 nm provided by a xenon arc lamp (model A1010, Photon Technologies Inc, Princeton, NJ). The dissociation reactions of dye-labeled B7 and protein complexes were monitored by fluorescence changes and were also collected in the fluorimeter described above.

avidin (AV) = biological target: T2, avidin (AV) (Gallus gallus, UniProt P02701); assay: Dissociation (displacement/replacement) of dye-labeled biotin complexes by unlabeled B7; type: binding; conditions: AB1; probe 20 nM, AV 260 nM; unlabeled B7 2,000 nM; 20°C
T2 construct: purchased Calbiochem (La Jolla, CA)
T2 sequence (P02701 25-152): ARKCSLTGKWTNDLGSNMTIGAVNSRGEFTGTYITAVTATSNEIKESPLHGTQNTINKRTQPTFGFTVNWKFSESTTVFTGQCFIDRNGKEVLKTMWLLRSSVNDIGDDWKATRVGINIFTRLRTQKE
Description: Biotin dissociation was determined using labelled biotin (BcO and BFl) displaced by unlabeled biotin using minimally occupied and fully occupied binding sites. In the minimally occupied measurements, SAV is prepared with less than one site on average occupied by labelled biotin (AB1), using 800 nM SAV and 40 nM of BcO or BFl. For saturated SAV-labelled biotin (AB4) complexes, equimolar binding sites and labelled ligand were prepared, 40 nM SAV and 40 nM of BcO or BFl. The AB1 complexes were challenged in displacement experiments with several concentrations of unlabeled B7 (1500 nM, 1750 nM, 2000 nM and 2500 nM) at 20 ± 0.1°C. […]
The rss measurements were collected using the Giblin-Parkhurst modification of the Wampler-Desa method as described previously. The fluorescence signal was detected in a model A-1010 Alphascan fluorimeter (Photon Technologies, Inc., Birmingham, NJ) equipped with an R928 PMT (Hamamatsu, Bridgewater, NJ). […] The fluorimeter G factor was determined using a film polarizer and analyzer with an excitation at 488 nm provided by a xenon arc lamp (model A1010, Photon Technologies Inc, Princeton, NJ). The dissociation reactions of dye-labeled B7 and protein complexes were monitored by fluorescence changes and were also collected in the fluorimeter described above. […]

## NC(CCCCNC(=O)CCCC[C@@H]1SC[C@@H]2NC(=O)N[C@@H]21)C(=O)NCCCCCNC(=O)c1ccc(-c2c3cc(F)c(=O)cc-3oc3cc(O)c(F)cc23)c(C(=O)O)c1 (some centres unmarked) [BcO, Oregon green 488 Biocytin]
Streptavidin (SAV) [1]; 25°C
  kon binding to SAV, fold faster than binding to AV: 3.2 X
Streptavidin (SAV) [1]; 277.15 K, follows from the SAV line (m2, b2), protein not printed in the line
  rate at 4C (logarithmic value): 16.3
Streptavidin (SAV) [1]; BcO 20 nM, SAV 200 nM, 10°C
  halftime, F¯(t): 200.6 ms
  halftime, rF¯(t): 201.4 ms
  halftime, r¯(t): 332.7 ms
Streptavidin (SAV) [1]; SAV 2, reacting with BcO
  b of the line y = m2x+b2: 27.125
Streptavidin (SAV) [1]; SAV 2, reacting with BcO, x = 1/Temp
  slope, m of the line y = m2x+b2: -2995.5
Streptavidin (SAV) [1]; SAV, 10 (283.15 K)
  ln(k): 16.7
Streptavidin (SAV) [1]; SAV, 10 (283.15 K), k (full value)
  k(average): 1.73E+07
Streptavidin (SAV) [1]; SAV, 10 (283.15 K), k (scaled)
  k(average): 17.3
Streptavidin (SAV) [1]; SAV, 15 (288.15 K)
  ln(k): 16.8
Streptavidin (SAV) [1]; SAV, 15 (288.15 K), k (full value)
  k(average): 2.00E+07
Streptavidin (SAV) [1]; SAV, 15 (288.15 K), k (scaled)
  k(average): 20
Streptavidin (SAV) [1]; SAV, 20 (293.15 K)
  ln(k): 17.0
Streptavidin (SAV) [1]; SAV, 20 (293.15 K), k (full value)
  k(average): 2.40E+07
Streptavidin (SAV) [1]; SAV, 20 (293.15 K), k (scaled)
  k(average): 24
Streptavidin (SAV) [1]; SAV, 25 (298.15 K)
  ln(k): 17.2
Streptavidin (SAV) [1]; SAV, 25 (298.15 K), k (full value)
  k(average): 3.03E+07
Streptavidin (SAV) [1]; SAV, 25 (298.15 K), k (scaled)
  k(average): 30.3
Streptavidin (SAV) [1]; SAV, pH 8
  Ea^Forward: 6.2 ± 0.4 kcal/mol
Streptavidin (SAV) [1]; SAV, pH 8, forward
  ΔG^ǂ: 3.9 ± 0.4 kcal/mol
  ΔS^ǂ: 7.8 ± 0.4 cal/°K·mol
Streptavidin (SAV) [1]; SAV, ph8
  kcal/mol (from Arrhenius slope): -9583
  slope (Arrhenius linear fit): -4823.1
Streptavidin (SAV) [1]; pH 8, SAV, pH 8, 10°C, read-out: kon
  kon: 1.73e+07 ± 600000 M⁻¹ s⁻¹
Streptavidin (SAV) [1]; pH 8, SAV, pH 8, 15°C, read-out: kon
  kon: 2e+07 ± 1.2e+06 M⁻¹ s⁻¹
Streptavidin (SAV) [1]; pH 8, SAV, pH 8, 20°C, read-out: kon
  kon: 2.4e+07 ± 1.6e+06 M⁻¹ s⁻¹
Streptavidin (SAV) [1]; pH 8, SAV, pH 8, 25°C, read-out: kon
  kon: 3.03e+07 ± 2e+06 M⁻¹ s⁻¹
Streptavidin (SAV) [1]; SAV 200 nM, pH 8, 10°C
  half-time of association, rF¯(t): 202 ms
Streptavidin (SAV) [1]; SAV 200 nM, pH 8, 15°C
  half-time of association, rF¯(t): 111 ms
Streptavidin (SAV) [1]; SAV 200 nM, pH 8, 20°C
  half-time of association, rF¯(t): 79 ms
Streptavidin (SAV) [1]; read-out: kon, mono-exponential fit of F¯(t), BcO 20 nM, SAV 200 nM, 10°C
  kon: 1.73e+07 M⁻¹ s⁻¹
Streptavidin (SAV) [1]; read-out: kon, mono-exponential fit of rF¯(t), BcO 20 nM, SAV 200 nM, 10°C
  kon: 1.72e+07 M⁻¹ s⁻¹
Streptavidin (SAV) [1]; read-out: kon, mono-exponential fit of uncorrected anisotropy r¯(t), BcO 20 nM, SAV 200 nM, 10°C, ill-fitted signal
  kon: 1.04e+07 M⁻¹ s⁻¹
Streptavidin (SAV) [2]; SAV complex (AB1), 20°C
  Steady State Anisotropy rss: 0.053 ± 0.005
Streptavidin (SAV) [2]; increase of rss against unbound
  SAV-increment (%): 130.4%
Streptavidin (SAV) [2]; steady-state anisotropy
  rss, + SAV: 0.053
Avidin (AV)
  koff displacement / koff replacement of AV complexes: could not detect neither displacement nor replacement; also recorded: could not be detected
